Reference: patent publication US20260250318A1, “COMPOSITIONS AND METHODS FOR CROSSING THE BLOOD BRAIN BARRIER” (VOYAGER THERAPEUTICS, INC., priority 2022, published 2026)

What was measured:
[1] = tested on: brains, heart, liver, muscle, and DRG of the NHPs; assay: Maturation of TTM-001 and TTM-002 capsids, NGS enrichment in NHP tissues; format: in vivo; conditions: relative to AAV9 control
Summary of the method: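 Variants carry mutations within and flanking the loop IV peptide insert: positions 450–466 were triplet-randomized, while positions 449–466 received low-frequency point mutations. The combined pool went into two NHPs, and each peptide was scored by NGS enrichment ratio against AAV9.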

[2] = tested on: brain; assay: Matured TTM-001 and TTM-002 variants, NGS enrichment in mouse brain; format: in vivo, mice; conditions: relative to AAV9 control
[3] = tested on: brain; assay: NGS fold enrichment of synthetic library (passage 3) in C57Bl/6 mice, first cross-species screen; format: in vivo; conditions: synthetic library passage 3, intravenous, relative to wild-type AAV9
Summary of the method: (§1)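 Passage-3 synthetic capsid library given intravenously […] to NHPs (2-4 years) and BALB/c or C57Bl/6 mice (n=3, 6-8 weeks). After e.g. 28 days, tissue RNA was RT-PCR amplified and NGS-sequenced; values are fold enrichment of each variant relative to wild-type AAV9.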

[4] = tested on: brain, spinal cord, and DRG of the NHPs; assay: NGS fold enrichment of synthetic library (passage 3) in NHPs, first cross-species screen; format: in vivo, cynomolgus macaques (Macaca fascicularis); conditions: synthetic library passage 3, intravenous, relative to wild-type AAV9
Summary of the method: as §1

[5] = tested on: brain; assay: NGS fold enrichment of synthetic library (passage 3) in BALB/c mice, first cross-species screen; format: in vivo; conditions: synthetic library passage 3, intravenous, relative to wild-type AAV9
Summary of the method: as §1

[6] = NGS fold-enrichment of matured AAV capsid variants, NHP brain, RNA
[7] = NGS fold-enrichment, DRG of NHPs
[8] = NGS fold-enrichment, RNA, brain of NHPs
[9] = NGS fold-enrichment, heart of NHPs
[10] = NGS fold-enrichment, liver DNA of NHPs
[11] = NGS fold-enrichment, liver RNA of NHPs
[12] = NGS fold-enrichment, muscle of NHPs
[13] = NGS fold-enrichment, brain of mice
[14] = NGS fold-enrichment of RNA, NHP brain
[15] = NGS fold-enrichment, NHP liver DNA
[16] = NGS fold-enrichment, NHP liver RNA
[17] = NGS fold-enrichment, NHP muscle
[18] = NGS fold-enrichment, mouse brain

Row | Sequence | Fold Enrichment relative to AAV9, Brain (NHP) [1, 14] [fold] | Fold Enrichment relative to AAV9, DRG (NHP) ([1]; NGS fold-enrichment, NHP DRG) [fold] | Fold Enrichment relative to AAV9, Heart (NHP) ([1]; NGS fold-enrichment, NHP heart) [fold] | Fold Enrichment relative to AAV9, Liver DNA (NHP) [1, 15] [fold] | Fold Enrichment relative to AAV9, Liver RNA (NHP) [1, 16] [fold] | Fold Enrichment relative to AAV9, Muscle (NHP) [1, 17] [fold] | Fold Enrichment relative to AAV9, Brain (Mouse) [2, 18] [fold] | further results
1 | EAINGSGSPHSKAQNQQT |  |  |  |  |  |  |  | Fold Enrichment relative to AAV9, Brain (NHP) [1, 6]: 50.243 fold; Fold Enrichment relative to AAV9, DRG (NHP) ([1]; NHP DRG): 0.629 fold; Fold Enrichment relative to AAV9, Heart (NHP) ([1]; NHP heart): 0.094 fold; Fold Enrichment relative to AAV9, Liver DNA (NHP) ([1]; NHP liver, DNA): 1.519 fold; Fold Enrichment relative to AAV9, Liver RNA (NHP) ([1]; NHP liver, RNA): 0.057 fold; Fold Enrichment relative to AAV9, Muscle (NHP) ([1]; NHP muscle): 0.000 fold; Fold Enrichment relative to AAV9, Brain (Mouse) ([2]; mouse brain): 117.305 fold
2 | ETIKGSGSPHSKAQNQQT |  |  |  |  |  |  |  | Fold Enrichment relative to AAV9, DRG (NHP) [1, 7]: 0.000 fold; Fold Enrichment relative to AAV9, Brain (NHP) [1, 8]: 64.609 fold; Fold Enrichment relative to AAV9, Heart (NHP) [1, 9]: 0.000 fold; Fold Enrichment relative to AAV9, Liver DNA (NHP) [1, 10]: 0.024 fold; Fold Enrichment relative to AAV9, Liver RNA (NHP) [1, 11]: 0.000 fold; Fold Enrichment relative to AAV9, Muscle (NHP) [1, 12]: 0.144 fold; Fold Enrichment relative to AAV9, Brain (Mouse) [2, 13]: 67.201 fold
3 | ETINGSGSPHSKAQNLQT | 90.969 | 0.221 | 1.023 | 0.813 | 0.179 | 0.197 | 107.216 | Fold Enrichment relative to AAV9, DRG (NHP) [1, 7]: 0.221 fold; Fold Enrichment relative to AAV9, Brain (NHP) [1, 8]: 90.969 fold; Fold Enrichment relative to AAV9, Heart (NHP) [1, 9]: 1.023 fold; Fold Enrichment relative to AAV9, Liver DNA (NHP) [1, 10]: 0.813 fold; Fold Enrichment relative to AAV9, Liver RNA (NHP) [1, 11]: 0.179 fold; Fold Enrichment relative to AAV9, Muscle (NHP) [1, 12]: 0.197 fold; Fold Enrichment relative to AAV9, Brain (Mouse) [2, 13]: 107.216 fold
4 | GYFVAAWSGQNQQT |  |  |  |  |  |  |  | Fold enrichment over AAV9 in the brain of Mice (C57Bl/6) ([3]; RNA NGS, brain of C57Bl/6 mice): 0.071 fold; Fold enrichment over AAV9 in the brain of NHPs ([4]; RNA NGS, brain of NHPs): 4.488 fold; Fold enrichment over AAV9 in the spinal cord of NHPs ([4]; RNA NGS, spinal cord of NHPs): 0.000 fold; Fold enrichment over AAV9 in the brain of Mice (BALB/c) ([5]; RNA NGS, brain of BALB/c mice): 0.175 fold
5 | GYTRLETSGQNQQT |  |  |  |  |  |  |  | Fold enrichment over AAV9 in the brain of Mice (C57Bl/6) ([3]; RNA from brain of C57Bl/6 mice, NGS): 0.841 fold; Fold enrichment over AAV9 in the brain of NHPs ([4]; RNA from brain of NHPs, NGS): 1.250 fold; Fold enrichment over AAV9 in the spinal cord of NHPs ([4]; RNA from spinal cord of NHPs, NGS): 1.323 fold; Fold enrichment over AAV9 in the brain of Mice (BALB/c) ([5]; RNA from brain of BALB/c mice, NGS): 0.297 fold
6 | KAEHGSGSPHSKAQNQQT |  |  |  |  |  |  |  | Fold Enrichment relative to AAV9, DRG (NHP) [1, 7]: 0.000 fold; Fold Enrichment relative to AAV9, Brain (NHP) [1, 8]: 61.830 fold; Fold Enrichment relative to AAV9, Heart (NHP) [1, 9]: 0.000 fold; Fold Enrichment relative to AAV9, Liver DNA (NHP) [1, 10]: 0.184 fold; Fold Enrichment relative to AAV9, Liver RNA (NHP) [1, 11]: 0.772 fold; Fold Enrichment relative to AAV9, Muscle (NHP) [1, 12]: 0.000 fold; Fold Enrichment relative to AAV9, Brain (Mouse) [2, 13]: 116.201 fold
7 | KAEMGSGSPHSKAQNQQT | 83.049 | 0.000 | 0.020 | 0.112 | 0.768 | 0.000 | 135.019 | Fold Enrichment relative to AAV9, DRG (NHP) [1, 7]: 0.000 fold; Fold Enrichment relative to AAV9, Brain (NHP) [1, 8]: 83.049 fold; Fold Enrichment relative to AAV9, Heart (NHP) [1, 9]: 0.020 fold; Fold Enrichment relative to AAV9, Liver DNA (NHP) [1, 10]: 0.112 fold; Fold Enrichment relative to AAV9, Liver RNA (NHP) [1, 11]: 0.768 fold; Fold Enrichment relative to AAV9, Muscle (NHP) [1, 12]: 0.000 fold; Fold Enrichment relative to AAV9, Brain (Mouse) [2, 13]: 135.019 fold
8 | KAENGSGSPHSKAQNQQT |  |  |  |  |  |  |  | Fold Enrichment relative to AAV9, Brain (NHP) [1, 6]: 52.487 fold; Fold Enrichment relative to AAV9, DRG (NHP) ([1]; NHP DRG): 0.000 fold; Fold Enrichment relative to AAV9, Heart (NHP) ([1]; NHP heart): 0.157 fold; Fold Enrichment relative to AAV9, Liver DNA (NHP) ([1]; NHP liver, DNA): 0.242 fold; Fold Enrichment relative to AAV9, Liver RNA (NHP) ([1]; NHP liver, RNA): 0.000 fold; Fold Enrichment relative to AAV9, Muscle (NHP) ([1]; NHP muscle): 0.029 fold; Fold Enrichment relative to AAV9, Brain (Mouse) ([2]; mouse brain): 120.256 fold
9 | KAETGSGSPHSKAQNQQT |  |  |  |  |  |  |  | Fold Enrichment relative to AAV9, Brain (NHP) [1, 6]: 52.219 fold; Fold Enrichment relative to AAV9, DRG (NHP) ([1]; NHP DRG): 0.000 fold; Fold Enrichment relative to AAV9, Heart (NHP) ([1]; NHP heart): 0.047 fold; Fold Enrichment relative to AAV9, Liver DNA (NHP) ([1]; NHP liver, DNA): 0.188 fold; Fold Enrichment relative to AAV9, Liver RNA (NHP) ([1]; NHP liver, RNA): 0.009 fold; Fold Enrichment relative to AAV9, Muscle (NHP) ([1]; NHP muscle): 0.581 fold; Fold Enrichment relative to AAV9, Brain (Mouse) ([2]; mouse brain): 132.940 fold
10 | KAIIGHESPHKSGQNQQT | 88.563 | 0.000 | 0.150 | 0.145 | 0.062 | 0.000 | 8.530 | 
11 | KAIKGSGSPHSKAQDQQT | 82.258 | 0.000 | 0.000 | 0.000 | 0.108 | 0.000 | 85.178 | Fold Enrichment relative to AAV9, DRG (NHP) [1, 7]: 0.000 fold; Fold Enrichment relative to AAV9, Brain (NHP) [1, 8]: 82.258 fold; Fold Enrichment relative to AAV9, Heart (NHP) [1, 9]: 0.000 fold; Fold Enrichment relative to AAV9, Liver DNA (NHP) [1, 10]: 0.000 fold; Fold Enrichment relative to AAV9, Liver RNA (NHP) [1, 11]: 0.108 fold; Fold Enrichment relative to AAV9, Muscle (NHP) [1, 12]: 0.000 fold; Fold Enrichment relative to AAV9, Brain (Mouse) [2, 13]: 85.178 fold
12 | KAINGHDNPHKSGQNQQT | 88.906 | 0.297 | 0.721 | 0.130 | 0.222 | 0.482 | 9.702 | 
13 | KAINGHDSPHKSAQNQET | 90.402 | 0.000 | 0.073 | 0.000 | 0.746 | 0.000 | 10.674 | 
14 | KAINGHDSPHKSAQSQQT | 95.204 | 0.146 | 0.310 | 0.058 | 0.699 | 0.000 | 14.595 | 
15 | KAINGHDSPHKSEKNQQT | 77.103 | 0.000 | 0.274 | 0.000 | 0.000 | 0.000 | 26.868 | 
16 | KAINGHDSPHKSGPRQQT | 145.142 | 0.000 | 0.408 | 0.000 | 0.000 | 0.000 | 8.259 | 
17 | KAINGHDSPHKSGQIRQT | 108.510 | 0.000 | 23.908 | 0.261 | 0.132 | 0.000 | 8.862 | 
18 | KAINGHDSPHKSGQSPQT | 75.734 | 0.095 | 0.148 | 0.238 | 0.000 | 0.000 | 14.195 | 
19 | KAINGPDSPHKSGQKQQT | 78.213 | 0.464 | 0.047 | 0.162 | 0.323 | 0.000 | 10.395 | 
